Laboratory results from patent publication US5488049A, “Method of treating learning and memory disorders using benzothiadiazide derivatives as nootropic agents” (FIDIA - Georgetown Institute for the Neuro-Sciences, priority 1993, dated 1996).
“Also recorded” adds a separate entry of the source. Like-named read-outs stand apart in the source and are kept apart here.

Key:
rats [1] = assay: Water maze: drug action on alprazolam-disrupted learning behavior in rats; format: in vivo, rat; details: for antagonism of alprazolam amnesic effect: doses equimolar to IDRA 21 / (+) IDRA 21
Method: Rats (male 250 g b.w.) were trained two days, once a day, in maze A (See insert A). […] Rats were exposed to a new maze configuration (Maze B) in 4 successive trials 15, 30, 45, and 60 min after the i.p. injections.
(§1) The water maze apparatus was adapted from Kant et al., (16), and consists of three concentric squares placed inside a 5 ft plastic pool (FIG. 6). The walls of the maze are 50 cm in height and are constructed from black opaque plastic to allow for tracking of the animal with an overhead camera. The alleys between the walls are 16 cm wide. In the center of each wall there is a removable doorway. The opening of doorways allows for the construction of mazes with an increasing number of potential error possibilities. (See diagram for Maze A and Maze B, FIG. 6). The maze is located in a room 10'×15' at constant temperature (18° C.) adjacent to the vivarium. The room is illuminated with overhead lights which also serve as spatial cues. Additional spatial cues are provided by the position of the investigator and a number of small white x's placed within specific locations upon the walls of the maze. The maze is filled with water (18°)C. to a depth of 25 cm.
(§2) Seven days prior to drug studies, rats were tested in Maze A (forced maze) on two consecutive days. Pretesting with the "forced" maze enabled the assessment of the animals' general motor, sensory and motivational abilities, and facilitated the exclusion of those animals unable to meet pretesting criteria. Performance was assessed by determining either swim time, errors committed, or path length measured with a computerized recording device. Errors are defined as whole body entry into alleys not leading directly to the exit platform (i.e., shaded portions in FIG. 6). Rats were excluded from the study if their swim path length and/or number of errors were two standard deviations above the mean […] of the entire group. During the first two trials, the rats were placed into the center of the maze and given a maximum of 180 secs to find the "exit platform" located at the "finish" (FIG. 6). The time required, the number of errors, and the path length were recorded for each trial. […] Rats meeting the criteria were randomly divided into groups. On the day of the experiment, a single trial was run (Maze A) in order to establish a baseline of performance. Following drug administration, the rats were again tested once on Maze A to establish a baseline of post-treatment performance. Following an additional interatrial interval of 30 min., the rats were tested on Maze B.
In these experiments, rats were trained in Maze B 15, 30, 45 and 60 min. after drug injection.

rats [2] = assay: as above; format: in vivo, rat; details: oral 5 mg/kg
[3] = test system: AMPA receptors located on CAl pyramidal neuronal membranes; assay: Slow bath perfusion, whole-cell: potentiation of glutamate-elicited current (with MK-801) in CAl pyramidal neurons of hippocampal slices; format: cell-based, rat
Method: (§3) Young rats (12-16 days old) were decapitated and the brains quickly removed and placed in ice-cold Ringer solution. Thin slices of hippocampus (250 μm) were then cut with a vibratome slicer (Lancer, St. Louis, Mo.) and kept in Ringer solution at 37° C. until use. The experiments were carried out at room temperature with the slice totally submerged in a 1 ml volume recording chamber and under continuous perfusion with Ringer solution at a rate of 6 ml/min using an upright Hoffman modulation contrast microscope (Carl Zeiss, Germany) equipped with a 40×water immersion objective.
(§4) Media and drug application. The external Ringer solution contained (in mM): NaCl 120; KCl 3.1; CaCl2 2; MgCl2 1; KH2 PO4 1; NaHCO3 26; glucose 2.7; and it was continuously bubbled with 95% O2 and 5% CO2. Patch pipettes were filled with a solution containing (in mM): K-gluconate 140; MgCl2 1; ATP.Mg 2; EGTA 0.5; HEPES-KOH 10, pH 7.2. All the drugs under investigation were applied through the recording chamber perfusion system via parallel inputs having a common entry into the chamber. Agonist application was attained using two different systems that allowed a slow or a rapid solution change. Slow solution changes were used during recordings in whole-cell configuration and were obtained by exchanging the solution of the recording chamber within a few seconds. Fast solution changes were obtained with the use of the Y-shaped tubing method that allows complete exchange of solution in less than 10 ms, and is described in detail by Murase et al. (1989).
IDRA compounds (see above for structures) were first dissolved in 50 μl of DMSO, then […] of 1N NaOH and water (sufficient to reach a volume of 1 ml and a concentration of 10 mM). The final concentration was reached diluting the stock solution with Ringer solution.
(§5) Ionic currents in whole-cell configuration and outside-out excised membrane patches were monitored using the patch clamp technique (15).
The action diazoxide and the IDRA analogues were tested on the desensitization of AMPA receptors located on CAl pyramidal neuronal membranes in rat hippocampal slices. In order to evaluate whether the compounds under study increase the intensity of currents generated by the activation of non-NMDA receptors, these receptors were activated with glutamate in the presence of 5 μM MK-801 to block completely the ionic current elicited by glutamate acting on the NMDA receptor channels present in CAl pyramidal neurons. Three distinct methods of drug application were employed: 1) slow bath perfusion of agonist and drugs while recording in whole-cell mode (onset 30s); ii) fast application to outside-out patches of a fixed concentration of agonist with a double barrel pipette (onset<1 ms) in the presence and the absence of drugs; iii) fast perfusion (onset<6 ms) of increasing concentrations of agonist and drugs applied with the Y-tubing device to outside-out patches excised from neurons in brain slices and to voltage-clamped neurons in primary culture.
. The most efficacious (1 mM) derivative was IDRA21, which elicited a potentiation of 797±220% (n=4 cells), followed by IDRA 20 with a potentiation of 292±100% (n=4 cells) (FIG. 2). […]

animals and humans = details: refs 1-3 (NMDA antagonists); refs 7-9 (aniracetam); cited from earlier work
AMPA receptor [4] = assay: Fast application with double barrel pipette: AMPA receptor desensitization in outside-out patches from CAl hippocampal pyramidal neurons; format: cell-based, rat; details: 5 μM; 1 mM glutamate with 5 μM MK-801
Method: as §3, §4
Briefly, a polyethylene tubing (1 mm i.d.) is bent in a U-shaped, and another fine polyethylene tubing (50 μi.d.) and 10 mm length) is inserted into a small hole in the U-tubing making the tip of the Y-tubing. Solutions are fed to the Y-tubing by gravity, and negative pressure facilitates exchange of the solution. The tip of the Y-tubing is positioned 100 μm from the cell investigated, and upon opening and closing of a valve that controls the negative pressure, it was possible to respectively change rapidly and apply a number of different test solutions. This method was used to apply agonists to excised outside-out membrane patches. More rapid drug applications were used to apply agonists to excised outside-out membrane patches, and were obtained through a double-barrelled pipette positioned close to the recording pipette containing the membrane patch. […] The agonist was applied for a period of 150 ms and the time necessary for a complete exchange of the solution was less than 1 ms as measured at the opening of a patch pipette containing different dilutions of the drugs under study. […]
Ionic currents in whole-cell configuration and outside-out excised membrane patches were monitored using the patch clamp technique (15). […]

rats [5] = assay: Water maze: drug action on learning and retention in rats; format: in vivo, rat; details: IDRA 21 15 mg/kg
Method: Rats (male, 250 g) were trained once a day in maze A (See FIG. 8B forced maze) for 2 consecutive days. The day of the experiment, after a first exposure to maze A, IDRA 21 (15 mg/kg) Aniracetam (500 mg/kg) or vehicle (cont) were administered per oral gavage and 30 min later the animals were exposed once again to Maze A. After 30 min of interatrial rest, rats were exposed to Maze B (see FIG. 8C open maze).
as §1, §2

[6] = test system: kainate-activated current; assay: Selectivity: ionic current elicited by 20 μM kainate; format: cell-based, rat; details: for effect on kainate-activated current: 1 mM compound, 20 μM kainate; for effect on kainate responses at doses that decreased AMPA desensitization: all doses that decrease/inhibit AMPA desensitization
Method: as §3, §4, §5

AMPA receptor [7] = details: cited from earlier work
[8] = test system: EPSCs elicited in CAl pyramidal neurons; assay: Excitatory postsynaptic currents (EPSCs) in CAl pyramidal neurons in hippocampal slices on stimulation of Schaffer collateral afferents; format: cell-based, rat; details: in vitro; compared with (+) IDRA 21
Method: as §3, §5
Traces were filtered at 3 KHz (-3 dB, 8-pole, lowpass Bessel filter, Frequency Devices), and stored in an LSI 11/73 computer (INDEC System, Sunnyvale, Calif.) after digitization (10 KHz) with a Data Translation analog to digital converter. Decay time constants of EPSC and glutamate-activated currents were determined from exponential fitting with the 11/73 system by using an entirely automated least-squares procedures (see Vicini and Schuetze, 1985, for further details). This method uses a Simplex algorithm (Caceci and Cacheris, 1984) to fit the data to either a single or double exponential equation of the form I(t)=If exp(-t/tauf)+Is exp(-t/taus), where If and Is are the amplitudes of the sIPSC fast and slow components, and tauf and taus are their respective decay time constants. Peak amplitudes were measured at the absolute maximum of the currents, taking into account the noise of the baseline and noise around the peak. Rise times were measured as the time elapsed from 20 to 80% of the peak amplitude of the response.
The action of nootropic drugs on the excitatory postsynaptic currents (EPSCs) elicited in CAl pyramidal neurons in hippocampal slices was investigated by stimulation of the Schaffer collateral afferents.

## CC1Nc2ccc(Cl)cc2S(=O)(=O)N1 (single isomer, unassigned; (-)) [(-) IDRA 21]
Rats [1]; summary statement
  biological activity of enantiomers (summary): inactive
Rats [2]
  prevention of alprazolam-induced amnesia (enantiomers): inactive

## CC1Nc2cc(Cl)ccc2S(=O)(=O)N1 (stereo not shown) [IDRA 20, 6-chloro-3-methyl-3,4-dihydro-2H 1,2,4-benzothiadiazine S-S dioxide]
[3]; 1 mM compound, 50 μM glutamate, 5 μM MK-801, whole-cell, slow perfusion
  potentiation of glutamate-elicited current: 292±100%

## O=S1(=O)NC(C2CC3C=CC2C3)Nc2ccc(Cl)cc21 (stereo not shown) [IDRA 23, 6-chloro-3-bicyclo[2.2.1]-hept-2-ene-3,4-dihydro-2H 1,2,4-benzothiadiazine S-S dioxide]
[3]; 1 mM, 50 μM glutamate
  efficacy compared with diazoxide (potentiation of glutamate current), in words: either equally or less efficacious than diazoxide

## C[C@]12N[C@H](Cc3ccccc31)c1ccccc12 [MK-801]
Animals and humans
  effect on learning and memory (background): produce profound alterations in learning, disrupt memory consolidation and retrieval in animals and man

## NS(=O)(=O)c1cccc2c1c([N+](=O)[O-])cc1[nH]c(=O)c(=O)[nH]c12 [NBQX, 1,2,3,4-tetrahydroxy-6-nitro-2,3-dioxo-benzo-[f]quinoxaline-7-sulfonamide, reference compound]
AMPA receptor [4]
  block of transient peak and sustained plateau currents: completely blocked

## COc1ccc(C(=O)N2CCCC2=O)cc1 [aniracetam]
Rats [5]; FIG. 8A, Aniracetam 500 mg/kg oral
  improvement of water maze performance: improve water performance in rats
Rats [5]; Aniracetam 500 mg/kg per oral gavage, at least 5 rats
  significance (P) of water maze performance vs control: < 0.05
[6]
  effect on kainate-activated current: failed to potentiate the kainate-activated current
  effect on kainate responses at doses that decreased AMPA desensitization: failed to affect kainate responses
AMPA receptor [7]
  AMPA receptor desensitization / modulation (background): attenuating AMPA receptor spontaneous desensitization
  potency and duration of action (background): low potency and short lasting action
AMPA receptor [7]; listed as Aniracetam
  AMPA receptor desensitization / modulation (background): decreases AMPA receptor desensitization
Animals and humans
  effect on learning and memory (background): enhancing learning and memory (nootropic action) in animals

## NS(=O)(=O)c1cc2c(cc1Cl)N=CNS2(=O)=O [chlorothiazide, reference compound]
Rats [1]
  antagonism of alprazolam amnesic effect: inactive

## CC1=NS(=O)(=O)c2cc(Cl)ccc2N1 [diazoxide, reference compound]
Rats [1]
  antagonism of alprazolam amnesic effect: inactive; also recorded: unable to antagonize alprazolam-induced impairment of learning behavior
[6]
  effect on kainate-activated current: increased the current
  effect on kainate responses at doses that decreased AMPA desensitization: potently potentiated kainate responses
[8]
  efficacy in increasing excitatory synaptic strength in CAl pyramidal neurons: at least as efficacious as (+) IDRA 21
[3]; 100 μM
  potentiation of glutamate current, in words: inactive
[3]; 500 μM compound, mean±SE, N=4 cells
  potentiation of glutamate-elicited current: 152±0.2%
[3]; 1 mM, maximal dose testable without vehicle effect
  maximal efficacy reached, in words: failed to reach maximal efficacy at 1 mM
[3]; up to 1 mM
  potentiation of glutamate current, dose dependence: dose-dependent potentiation

## CNC1(c2ccccc2Cl)CCCCC1=O (stereo not shown) [ketamine]
Animals and humans
  effect on learning and memory (background): produce profound alterations in learning, disrupt memory consolidation and retrieval in animals and man

## c1ccc(C2(N3CCCCC3)CCCCC2)cc1 [phencyclidine]
Animals and humans
  effect on learning and memory (background): produce profound alterations in learning, disrupt memory consolidation and retrieval in animals and man
